Source: patent US10588317B2, “Isoxazoline-substituted benzamides and analogues as insecticides” (priority 2015, dated 2020)
Like-named read-outs stand apart in the source and are kept apart here.

Legend:
Assay type in all cases: in vivo
Plutella xylostella = Plutella xylostella (diamond back moth), artificial diet; settings: 120 h, read-out: effect in at least one of the two categories (mortality or growth inhibition); for percent effect (mortality or growth inhibition) at 200 ppm: application rate 200 ppm, L2 larvae, 5 days after infestation
Protocol: (§1) 24-well microtiter plates with artificial diet were treated with aqueous test solutions prepared from 10'000 ppm DMSO stock solutions by pipetting. After drying, the plates were infested with L2 larvae (10 to 15 per well). The samples were assessed for mortality and growth inhibition in comparison to untreated samples 5 days after infestation.
(§2) The following compounds gave an effect of at least 80% in at least one of the two categories (mortality or growth inhibition) at an application rate of 200 ppm: […]

Spodoptera littoralis = Spodoptera littoralis (Egyptian cotton leaf worm), sprayed cotton leaf discs; settings: foliar, 72 h, read-out: control (mortality, anti-feeding effect, growth inhibition)
Protocol: Cotton leaf discs were placed onto agar in 24-well microtiter plates and sprayed with aqueous test solutions prepared from 10'000 ppm DMSO stock solutions. After drying the leaf discs were infested with five L1 larvae. The samples were assessed for mortality, anti-feeding effect, and growth inhibition in comparison to untreated samples 3 days after infestation. Control of Spodoptera littoralis by a test sample is given when at least one of the categories mortality, anti-feedant effect, and growth inhibition is higher than the untreated sample.

Diabrotica balteata = Diabrotica balteata (corn root worm), sprayed maize sprouts; settings: 96 h, application rate 200 ppm, L2 larvae, 4 days after infestation, read-out: effect in at least one of the two categories (mortality or growth inhibition)
Protocol: as §1, with “Maize sprouts placed onto an agar layer in 24-well” for “24-well”, “plates” for “plates with artificial diet”, “spraying.” for “pipetting.”, “(6” for “(10”, “10” for “15”, “4” for “5”
as §2

Tetranychus urticae = Tetranychus urticae (two-spotted spider mite): feeding/contact activity; settings: 192 h, application rate 200 ppm, mixed population (mobile stages), 8 days after infestation, read-out: mortality
Protocol: Bean leaf discs on agar in 24-well microtiter plates were sprayed with aqueous test solutions prepared from 10'000 ppm DMSO stock solutions. After drying the leaf discs were infested with a mite population of mixed ages. The samples were assessed for mortality on mixed population (mobile stages) 8 days after infestation.

Euschistus heros = Euschistus heros (neotropical brown stink bug), sprayed soybean leaves; settings: 120 h, application rate 200 ppm, N2 nymphs, 5 days after infestation, read-out: effect in at least one of the two categories (mortality or growth inhibition)
Protocol: Soybean leaves on agar in 24-well microtiter plates were sprayed with aqueous test solutions prepared from 10'000 ppm DMSO stock solutions. After drying the leaves were infested with N2 nymphs. The samples were assessed for mortality and growth inhibition in comparison to untreated samples 5 days after infestation.
as §2

Thrips tabaci = Thrips tabaci (onion thrips): feeding/contact activity; settings: 144 h
Protocol: Sunflower leaf discs were placed on agar in 24-well microtiter plates and sprayed with aqueous test solutions prepared from 10'000 ppm DMSO stock solutions. After drying the leaf discs were infested with a Thrips population of mixed ages. The samples were assessed for mortality 6 days after infestation.

[1] = application rate 200 ppm, L1 larvae, 3 days after infestation
[2] = application rate 200 ppm, Thrips population of mixed ages, 6 days after infestation, read-out: mortality

CNC(=O)CS(=O)(=O)N1C[C@H](NC(=O)c2ccc(C3=NO[C@@](c4cc(Cl)cc(Cl)c4)(C(F)(F)F)C3)cc2C)CO1 [Compound A201]
≥ 80%: percent effect (mortality or growth inhibition) at 200 ppm (Plutella xylostella) | mortality at 200 ppm (Spodoptera littoralis; [1]) | percent effect (mortality or growth inhibition) at 200 ppm (Diabrotica balteata) | mortality at 200 ppm (Tetranychus urticae) | percent effect (mortality or growth inhibition) at 200 ppm (Euschistus heros)

Cc1cc(C2=NOC(c3ccc(OC(F)(F)F)cc3)(C(F)(F)F)C2)ccc1C(=O)NC1CON(S(C)(=O)=O)C1 (stereo not shown) [Compound A53]
≥ 80%: percent effect (mortality or growth inhibition) at 200 ppm (Plutella xylostella) | mortality at 200 ppm (Spodoptera littoralis; [1]) | percent effect (mortality or growth inhibition) at 200 ppm (Diabrotica balteata) | mortality at 200 ppm (Tetranychus urticae)

CS(=O)(=O)N1CC(NC(=O)c2ccc(C3=NOC(c4cc(Cl)cc(Cl)c4)(C(F)(F)F)C3)cn2)CO1 (stereo not shown) [Compound A238]
≥ 80%: mortality at 200 ppm (Spodoptera littoralis; [1])

CS(=O)(=O)N1CC(NC(=O)c2ccc(C3=NOC(c4cc(Cl)cc(Cl)c4)(C(F)(F)F)C3)c3ccccc23)CO1 (stereo not shown) [Compound A46]
≥ 80%: percent effect (mortality or growth inhibition) at 200 ppm (Plutella xylostella) | mortality at 200 ppm (Spodoptera littoralis; [1]) | mortality at 200 ppm (Thrips tabaci; [2]) | percent effect (mortality or growth inhibition) at 200 ppm (Diabrotica balteata) | mortality at 200 ppm (Tetranychus urticae) | percent effect (mortality or growth inhibition) at 200 ppm (Euschistus heros)

Cc1cc(C2=NO[C@](c3cc(Cl)cc(Cl)c3)(C(F)(F)F)C2)ccc1C(=O)N[C@H]1CON(S(=O)(=O)CCBr)C1 [Compound A177, N-[(4R)-2-(2-bromoethylsulfonyl)-1,2-oxazolidin-4-yl]-4-[(5R)-5-(3,5-dichlorophenyl)-5-(trifluoromethyl)-4H-1,2-oxazol-3-yl]-2-methylbenzamide]
≥ 80%: percent control (mortality or growth inhibition) at 200 ppm (Plutella xylostella) | mortality at 200 ppm (Spodoptera littoralis) | mortality at 200 ppm (Thrips tabaci)

CN(C)S(=O)(=O)N1C[C@@H](NC(=O)c2ccc(C3=NO[C@@](c4cc(Cl)cc(Cl)c4)(C(F)(F)F)C3)cc2Cl)CO1 [Compound A110, 2-chloro-4-[(5S)-5-(3,5-dichlorophenyl)-5-(trifluoromethyl)-4H-isoxazol-3-yl]-N-[(4R)-2-(dimethylsulfamoyl)isoxazolidin-4-yl]benzamide]
≥ 80%: percent effect (mortality or growth inhibition) at 200 ppm (Plutella xylostella) | mortality at 200 ppm (Spodoptera littoralis; [1]) | mortality at 200 ppm (Thrips tabaci; [2]) | percent effect (mortality or growth inhibition) at 200 ppm (Diabrotica balteata) | mortality at 200 ppm (Tetranychus urticae) | percent effect (mortality or growth inhibition) at 200 ppm (Euschistus heros)

CNS(=O)(=O)N1C[C@H](NC(=O)c2ccc(C3=NO[C@@](c4ccc(C(F)(F)F)c(F)c4)(C(F)(F)F)C3)cc2C)CO1 [Compound A182]
≥ 80%: percent effect (mortality or growth inhibition) at 200 ppm (Plutella xylostella) | mortality at 200 ppm (Spodoptera littoralis; [1]) | mortality at 200 ppm (Thrips tabaci; [2]) | percent effect (mortality or growth inhibition) at 200 ppm (Diabrotica balteata) | mortality at 200 ppm (Tetranychus urticae)

Cc1cc(C2=NO[C@](c3cc(Cl)c(F)c(Cl)c3)(C(F)(F)F)C2)ccc1C(=O)N[C@H]1CON(S(=O)(=O)CC#N)C1 [Compound A163]
≥ 80%: percent effect (mortality or growth inhibition) at 200 ppm (Plutella xylostella) | mortality at 200 ppm (Spodoptera littoralis; [1]) | mortality at 200 ppm (Thrips tabaci; [2]) | percent effect (mortality or growth inhibition) at 200 ppm (Diabrotica balteata) | mortality at 200 ppm (Tetranychus urticae) | percent effect (mortality or growth inhibition) at 200 ppm (Euschistus heros)

Cc1nc(C2=NOC(c3cc(Cl)cc(Cl)c3)(C(F)(F)F)C2)ccc1C(=O)NC1CON(S(C)(=O)=O)C1 (stereo not shown) [Compound A237]
≥ 80%: percent effect (mortality or growth inhibition) at 200 ppm (Plutella xylostella) | mortality at 200 ppm (Spodoptera littoralis; [1]) | percent effect (mortality or growth inhibition) at 200 ppm (Diabrotica balteata)

CS(=O)(=O)N1CC(NC(=O)c2ccc(C3=NOC(c4cc(Cl)cc(Cl)c4)(C(F)(F)F)C3)cc2C#N)CO1 (stereo not shown) [Compound A47]
≥ 80%: mortality at 200 ppm (Spodoptera littoralis; [1])

Cc1cc(C2=NO[C@@](c3cc(Cl)cc(Cl)c3)(C(F)(F)F)C2)ccc1C(=O)N[C@@H]1CON(S(=O)(=O)CC(F)(F)F)C1 [Compound A195, 4-[(5S)-5-(3,5-dichlorophenyl)-5-(trifluoromethyl)-4H-1,2-oxazol-3-yl]-2-methyl-N-[(4S)-2-(2,2,2-trifluoroethylsulfonyl)-1,2-oxazolidin-4-yl]benzamide]
≥ 80%: percent effect (mortality or growth inhibition) at 200 ppm (Plutella xylostella) | mortality at 200 ppm (Spodoptera littoralis; [1]) | mortality at 200 ppm (Thrips tabaci; [2]) | percent effect (mortality or growth inhibition) at 200 ppm (Diabrotica balteata) | mortality at 200 ppm (Tetranychus urticae) | percent effect (mortality or growth inhibition) at 200 ppm (Euschistus heros)

Cc1cc(Cl)cc(C2(C(F)(F)F)CC(c3ccc(C(=O)NC4CON(S(C)(=O)=O)C4)c(C)c3)=NO2)c1 (stereo not shown) [Compound A51]
≥ 80%: percent effect (mortality or growth inhibition) at 200 ppm (Plutella xylostella) | mortality at 200 ppm (Spodoptera littoralis; [1]) | mortality at 200 ppm (Thrips tabaci; [2]) | percent effect (mortality or growth inhibition) at 200 ppm (Diabrotica balteata) | mortality at 200 ppm (Tetranychus urticae)

Cc1cc(C2=NO[C@](c3ccc(C(F)(F)F)c(F)c3)(C(F)(F)F)C2)ccc1C(=O)N[C@@H]1CON(S(=O)(=O)N(C)C)C1 [Compound A171]
≥ 80%: percent effect (mortality or growth inhibition) at 200 ppm (Plutella xylostella) | mortality at 200 ppm (Spodoptera littoralis; [1]) | mortality at 200 ppm (Thrips tabaci; [2]) | percent effect (mortality or growth inhibition) at 200 ppm (Diabrotica balteata) | mortality at 200 ppm (Tetranychus urticae)

CS(=O)(=O)N1CC(NC(=O)c2ccc(C3=NOC(c4cc(Cl)cc(Cl)c4)(C(F)(F)F)C3)c3ncccc23)CO1 (stereo not shown) [Compound A56]
≥ 80%: percent effect (mortality or growth inhibition) at 200 ppm (Plutella xylostella) | mortality at 200 ppm (Spodoptera littoralis; [1])

C=CS(=O)(=O)N1C[C@H](NC(=O)c2ccc(C3=NO[C@@](c4cc(Cl)cc(Cl)c4)(C(F)(F)F)C3)cc2C)CO1 [Compound A175]
≥ 80%: mortality at 200 ppm (Spodoptera littoralis; [1])

CS(=O)(=O)N1CC(NC(=O)c2cnc(C3=NOC(c4cc(Cl)cc(Cl)c4)(C(F)(F)F)C3)c3ccccc23)CO1 (stereo not shown) [Compound A239]
≥ 80%: percent effect (mortality or growth inhibition) at 200 ppm (Plutella xylostella) | mortality at 200 ppm (Spodoptera littoralis; [1]) | mortality at 200 ppm (Thrips tabaci; [2]) | percent effect (mortality or growth inhibition) at 200 ppm (Diabrotica balteata) | percent effect (mortality or growth inhibition) at 200 ppm (Euschistus heros)

Cc1cc(C2=NOC(c3ccnc(F)c3)(C(F)(F)F)C2)ccc1C(=O)NC1CON(S(C)(=O)=O)C1 (stereo not shown) [Compound A54]
≥ 80%: percent effect (mortality or growth inhibition) at 200 ppm (Plutella xylostella) | mortality at 200 ppm (Spodoptera littoralis; [1]) | percent effect (mortality or growth inhibition) at 200 ppm (Diabrotica balteata) | mortality at 200 ppm (Tetranychus urticae) | percent effect (mortality or growth inhibition) at 200 ppm (Euschistus heros)

Cc1cc(C2=NO[C@@](c3ccc(C(F)(F)F)c(F)c3)(C(F)(F)F)C2)ccc1C(=O)N[C@H]1CON(S(C)(=O)=O)C1 [Compound A170]
≥ 80%: percent effect (mortality or growth inhibition) at 200 ppm (Plutella xylostella) | mortality at 200 ppm (Spodoptera littoralis; [1]) | mortality at 200 ppm (Thrips tabaci; [2]) | percent effect (mortality or growth inhibition) at 200 ppm (Diabrotica balteata) | mortality at 200 ppm (Tetranychus urticae)

Cc1cc(C2=NO[C@@](c3cc(Cl)c(Cl)c(Cl)c3)(C(F)(F)F)C2)ccc1C(=O)NC1CON(S(C)(=O)=O)C1 (stereo partly drawn) [Compound A26, 2-methyl-N-(2-methylsulfonylisoxazolidin-4-yl)-4-[(5S)-5-(3,4,5-trichlorophenyl)-5-(trifluoromethyl)-4H-isoxazol-3-yl]benzamide]
≥ 80%: percent effect (mortality or growth inhibition) at 200 ppm (Euschistus heros)

C=CS(=O)(=O)N1C[C@@H](NC(=O)c2ccc(C3=NO[C@@](c4cc(Cl)c(F)c(Cl)c4)(C(F)(F)F)C3)cc2C)CO1 [Compound A193, 4-[(5S)-5-(3,5-dichloro-4-fluorophenyl)-5-(trifluoromethyl)-4H-1,2-oxazol-3-yl]-N-[(4R)-2-ethenylsulfonyl-1,2-oxazolidin-4-yl]-2-methylbenzamide]
≥ 80%: percent effect (mortality or growth inhibition) at 200 ppm (Plutella xylostella) | mortality at 200 ppm (Spodoptera littoralis; [1]) | mortality at 200 ppm (Thrips tabaci; [2]) | mortality at 200 ppm (Tetranychus urticae)

Cc1cc(C2=NOC(c3cc(C(F)(F)F)ccn3)(C(F)(F)F)C2)ccc1C(=O)N[C@H]1CON(S(C)(=O)=O)C1 (stereo partly shown) [Compound A222]
≥ 80%: percent effect (mortality or growth inhibition) at 200 ppm (Plutella xylostella) | mortality at 200 ppm (Spodoptera littoralis; [1]) | percent effect (mortality or growth inhibition) at 200 ppm (Diabrotica balteata) | mortality at 200 ppm (Tetranychus urticae)

Cc1cc(C2=NOC(c3ccc(Br)cc3)(C(F)(F)F)C2)ccc1C(=O)NC1CON(S(C)(=O)=O)C1 (stereo not shown) [Compound A55]
≥ 80%: percent effect (mortality or growth inhibition) at 200 ppm (Plutella xylostella) | mortality at 200 ppm (Spodoptera littoralis; [1]) | mortality at 200 ppm (Thrips tabaci; [2]) | percent effect (mortality or growth inhibition) at 200 ppm (Diabrotica balteata) | mortality at 200 ppm (Tetranychus urticae)
